Several values for one entry are separate records, joined by “and”; a condition that tells them apart may be missing. Identical values can stand only once.
What was measured:
[1] = system: Raji (Burkitt's lymphoma); assay: MTT cell proliferation test, Raji cells; assay type: cell-based, human
Procedure: (§1) Aliquots (200 μL) of suspensions of cancer cells were dispensed into wells of 96-well tissue culture plates at densities of 0.02×10^6 cells/well. Various concentrations of cannabinoic quinones were introduced into the wells, and their efficacy was tested three days after initiation of the cultures, using the 3-(4,5-dimethylthiazol-2-yl)-2,5-diphenyltetrazolium bromide (MTT) assay. The principle of this assay is that cells which survive following exposure to various compounds can reduce MTT to a dark-colored formazan, while dead cells are incapable of doing so. […] In each MTT assay every concentration of the cytotoxic substance was tested in five replicates in microplate wells. Assays with every cell line were carried out in two to three repeated experiments. The inhibitory effect of various compounds was calculated as percentage inhibition in comparison with the values obtained in untreated wells to which vehicle (ethanol 0.5%) was added.

[2] = system: Jurkat (human T-cell lymphoma); assay: MTT cell proliferation test, Jurkat cells; assay type: cell-based
Procedure: as §1

MCF-7 (breast cancer) = assay: MTT cell proliferation test, MCF-7 cells; assay type: cell-based, human
Procedure: (§2) Raji and Jurkat cells were suspended in RPMI 1640 medium, supplemented with 20% heat-inactivated fetal calf serum (H-I FCS), 2 mM L-glutamine, 100 U/mL penicillin, and 0.01 mg/mL streptomycin at 37° C. in a 5% CO2 humidified atmosphere. Other cell lines were suspended in RPMI 1640 medium, supplemented with 10% H-I FCS, 2 mM L-glutamine, 100 U/mL penicillin, and 0.01 mg/mL streptomycin at 37° C. in a 5% CO2 humidified atmosphere.
(§3) Aliquots (200 μL) of suspensions of cancer cells were dispensed into wells of 96-well tissue culture plates at densities of 0.02×10^6 cells/well. Various concentrations of cannabinoic quinones were introduced into the wells, and their efficacy was tested three days after initiation of the cultures, using the 3-(4,5-dimethylthiazol-2-yl)-2,5-diphenyltetrazolium bromide (MTT) assay. The principle of this assay is that cells which survive following exposure to various compounds can reduce MTT to a dark-colored formazan, while dead cells are incapable of doing so. The assay was performed as described previously [Carmichael, J., et al. (1987) Cancer Res. 47, 936-42; Rubinstein, L. V. et al. (1990) J Natl Cancer Inst. 82, 1113-8; Rubnov, S. et al. (2001) J Nat Prod. 64, 993-6]. In each MTT assay every concentration of the cytotoxic substance was tested in five replicates in microplate wells. Assays with every cell line were carried out in two to three repeated experiments. The inhibitory effect of various compounds was calculated as percentage inhibition in comparison with the values obtained in untreated wells to which vehicle (ethanol 0.5%) was added.
(§4) The ability of cannabinoic quinones to inhibit cancer growth in vitro was verified on the following human cancer cell lines: Raji (Burkitt's lymphoma), Jurkat (human T-cell lymphoma), SNB-19 (glioblastoma), MCF-7 (breast cancer), DU-145 (prostate cancer), NCI-H-226 (lung cancer), and HT-29 (colon cancer) (see FIG. 5A-5E).

HT-29 (colon cancer) = assay: MTT cell proliferation test, HT-29 cells; assay type: cell-based, human
Procedure: as §2, §3, §4

[3] = system: human cancer cell lines (Raji, Jurkat, SNB-19, MCF-7, DU-145, NCI-H-226, HT-29); assay: MTT cell proliferation test, all cell lines tested; assay type: cell-based; settings: for growth inhibition of human cancer cell lines in vitro, in words: MTT; for concentration at which all cell lines tested were inhibited: all cell lines / cell types tested
Procedure: as §1

HT-29 colon cancer = assay: Growth of HT-29 colon cancer grafted s.c. in nude mice; assay type: in vivo
Procedure: Tumors were grafted into nude mice by s.c. flank inoculation of 0.2×10^6 HT-29 cells in RPMI 1640 medium without FCS. The animals were assigned randomly to various groups and injected via intraperitoneal (i.p.), intratumor or subcutaneous (s.c.) on day 2 or 14 after cells injection with vehicle (1:1:18 v/v ethanol:Emulphor®:PBS) or 5 mg/kg of HU-331. Tumors were measured with external caliper, and their area was calculated by multiplying the length by the width of the tumor.
(§5) A series of experiments were carried out to determine the capacity of HU-331 to inhibit the growth of human tumor cells in vivo. Nude mice received a subcutaneous (s.c.) injection of HT-29 human colon cancer cells. At various time intervals after the administration of the tumor cells the mice received i.p. or s.c. injections of HU-331 (2) at a dose of 5 mg/kg 3 times per week. This concentration paralleled the concentration of 5 μg/ml used in the in vitro experiments, which killed about 50% of HT-29 cancer cells.
Further, ten nude mice received a s.c. injection of HT-29 and were divided in two groups. Starting from day 2 after tumor injection, one group of mice received the i.p. injections of HU-331.
In another in vivo experiment, two groups of nude mice received an injection of HT-29 cancer cells subcutaneously in their backs. HU-331 (2) was injected subcutaneously at a concentration of 5 μg/ml (FIG. 6). In one group (Group 1), HU-331 was administrated intra-tumorally starting 14 days after the injection of tumor cells. In another group (Group 2), HU-331 was injected subcutaneously in the region where cancer cells had been injected, starting 2 days after the injection of tumor cells. […] In the mice that received HU-331 intra-tumorally starting 14 days after tumor implantation (Group 1), the anti-tumor effect of HU-331 took a longer time to be manifested.

[4] = Tolerability in treated nude mice (weight loss, adverse effects); assay type: in vivo; settings: 5 mg/kg
Procedure: as §5

SNB-19 (glioblastoma) = assay: MTT cell proliferation test, SNB-19 cells; assay type: cell-based, human; settings: for susceptibility of the cell line to inhibition, in words: SNB-19, relative to the other cell lines
Procedure: as §1

DU-145 (prostate cancer) = assay: MTT cell proliferation test, DU-145 cells; assay type: cell-based, human; settings: for susceptibility of the cell line to inhibition, in words: DU-145, relative to the other cell lines
Procedure: as §1

C=C(C)[C@@H]1CCC(C)=C[C@H]1C1=C(O)C(=O)C(CCCCC)=CC1=O [HU-331, 3S,4R-p-benzoquinone-3-hydroxy-2-p-mentha-(1,8)-dien-3-yl-5-pentyl]
concentration giving 50% inhibition of growth ([1]; Raji lymphoma, MTT, three days): 0.2 µg/mL
inhibition of Raji cell growth ([1]; at 0.2 μg/ml): about 50%
inhibition of Raji cell growth ([1]; at 1.56 μg/ml): over 80%
concentration giving 50% inhibition of growth ([2]; Jurkat lymphoma, MTT, three days): 0.2 µg/mL
inhibition of Jurkat cell growth ([2]; at 0.2 μg/ml): about 50%
inhibition of Jurkat cell growth ([2]; at 1.56 μg/ml): over 80%
susceptibility of the cell line to inhibition, in words (MCF-7 (breast cancer); MCF-7, relative to the other cell lines): most susceptible
concentration required for 50% inhibition of growth (MCF-7 (breast cancer); MCF-7 mammary cancer, MTT, three days): 3.125 µg/mL
inhibition of MCF-7 cell growth (MCF-7 (breast cancer); at 3.125 μg/ml): about 50%
susceptibility of the cell line to inhibition, in words (HT-29 (colon cancer); HT-29, relative to the other cell lines): most susceptible
concentration required for 50% inhibition of growth (HT-29 (colon cancer); HT-29 colon cancer, MTT, three days): 3.125 µg/mL
inhibition of HT-29 cell growth (HT-29 (colon cancer); at 3.125 μg/ml): about 50%
HT-29 cancer cells killed (HT-29 (colon cancer); at 5 μg/ml in vitro): about 50%
growth inhibition of human cancer cell lines in vitro, in words [3]: exerted an inhibitory effect on the in vitro growth of all seven human cancer cell lines tested
tumor size versus controls (HT-29 colon cancer; i.p. 5 mg/kg 3 times per week from day 2, at 35 days after cancer cell injection, p<0.0029): half the size of the tumors in controls
tumor size versus vehicle-treated control mice (HT-29 colon cancer; i.p. 5 mg/kg 3 times per week from day 2, starting at 25 days after cancer cells injection, p<0.05): significantly smaller
tumor size versus controls (HT-29 colon cancer; intra-tumoral from day 14 (Group 1), from day 31 onwards, not significant until day 45): smaller than in controls
tumor size versus control mice (HT-29 colon cancer; intra-tumoral from day 14 (Group 1), starting at day 45 after cell injection, p<0.05): significantly smaller
tumor size versus control mice (HT-29 colon cancer; s.c. in the region of the graft from day 2 (Group 2), at days 17-25 and until day 59, p<0.05): significantly smaller
weight loss and observable adverse effects [4]: did not cause either weight loss or any observable adverse effects

CCCCCC1=CC(=O)C([C@@H]2C=C(C)CC[C@H]2C(C)C)=C(O)C1=O [HU-395, 3S,4R-p-benzoquinone-3-hydroxy-2-[p-mentha-1-en-3-yl]-5-pentyl]
inhibition at 0.2 µg/mL ([2]; Homo sapiens, Jurkat, at 0.2 μg/ml, read-out: inhibition of Jurkat cell growth): ~60%
inhibition of Jurkat cell proliferation, comparison in words ([2]; MTT): at least to the same extent as HU-331

CCCCCC1=CC(=O)C2=C(OC(C)(C)[C@@H]3CC=C(C)C[C@@H]23)C1=O [HU-336, 6aR,10aR-1-H-dibenzo[b,d]pyran-1,4-(6H)-dione-6aβ,7,10,10aα-tetrahydro-6,6,9-trimethyl-3-pentyl]
susceptibility of the cell line to inhibition, in words (SNB-19 (glioblastoma)): most susceptible
concentration at which growth was inhibited (SNB-19 (glioblastoma); SNB-19 cells, inhibited only at this concentration): 100 µg/mL
susceptibility of the cell line to inhibition, in words (DU-145 (prostate cancer)): most susceptible
growth inhibition of human cancer cell lines in vitro, in words [3]: weakest capacity to inhibit the growth of human cancer cell lines in vitro
concentration at which all cell lines tested were inhibited [3]: over 12.5 μg/ml
inhibition of growth of all the cells tested ([3]; at 12.5 μg/ml or higher): ≥ 50%

CCCCCC1=CC(=O)C2=C(OC(C)(C)c3ccc(C)cc32)C1=O [HU-345, 1-H-dibenzo[b,d]pyran-1,4(6H)-dione-6,6,9-trimethyl-3-pentyl]
inhibition at 6.25 µg/mL ([1]; Homo sapiens, Raji, read-out: inhibition of Raji cell growth): > 50%
inhibition of Raji cell growth, comparison in words ([1]; MTT): more effectively than that of the other cell lines tested
concentration at which growth was inhibited ([2]; Jurkat cells): 12.5 µg/mL and 12.5 to 25.0 µg/mL
susceptibility of the cell line to inhibition, in words (SNB-19 (glioblastoma)): most susceptible
susceptibility of the cell line to inhibition, in words (DU-145 (prostate cancer)): most susceptible
concentration at which growth was inhibited (DU-145 (prostate cancer); DU-145 prostate cancer cells): 12.5 µg/mL
concentration at which all cell lines tested were inhibited [3]: 25.0 µg/mL and 12.5 to 25.0 µg/mL

CCCCCC1=CC(=O)C([C@@H]2CC(C)CC[C@H]2C(C)C)=C(O)C1=O (stereo partly drawn) [HU-396, 3S,4R-p-benzoquinone-3-hydroxy-2-[p-menthan-3-yl]-5-pentyl]
inhibition of Jurkat cell proliferation, comparison in words ([2]; MTT): less effectively than HU-395 and HU-331
Jurkat cancer cells killed ([2]; at 0.39 μg/ml): about 40%
Jurkat cancer cells killed ([2]; at 0.78 μg/ml): about 60%

From US8497299B2, “Compositions including quinonoid derivatives of cannabinoids for therapeutic use” (Yissum Research Development Company of The Hebrew …, priority 2004, dated 2013)
